system: BCR-FMS BaF3 cells; experiment: Splenomegaly mouse model, BCR-FMS BaF3 cells; assay type: in vivo; conditions: dosed once per day at 10 mg per kg
Experimental: BaF3 cells are engineered with any of BCR-FMS, BCR-TRK1 or BCR-TRK2 to assess in vivo inhibitory effects of Fms, TrkA or TrkB inhibition, respectively. BaF3 cells are maintained in growth media (RPMI containing 10% FBS, 1% PenStrep, 1% NEAA, and 1% L-Glutamine, supplemented with 5% murine IL-3 and 1 mg/mL G418). Four days prior to start, 2×10^6 cells are inoculated into a T150 vented flask using the growth media and incubated at 37° C. in 5% CO2 for three days. One day prior to start, cells are collected by centrifugation and are suspended in growth media without IL-3. On the day of cell implant, the cells are collected by centrifugation, rinsed 3×20 mL with RPMI, then are suspended in 5.4 mL of media and counted, then adjusted with additional RPMI as needed to give 5×10^7 cells/mL. On day 1, female nu/nu mice at 5-6 weeks of age are injected intravenously with BaF3 cells injected injecting 0.1 mL (5×10^6) cells in the tail vein (mice without cell injected are included as control group). Compound stocks in dimethylsulfoxide are stored at room temperature protected from light. Stocks are diluted prior to dosing, diluting 22 μL of compound stock into 858 μL of diluent (or 50 μL into 1950 μL) to provide vehicle of 1.0% Polysorbate 80, 0.5% hydroxypropyl methyl cellulose, with final dimethylsulfoxide at 2.5% in all dosing suspensions and vehicle control. Dosing suspension is prepared prior to use, mixing by inversion and sonication in a water bath to make a uniform suspension. On days 10-18, mice are treated with vehicle only or the desired level of compound in vehicle, ˜0.2 mL per 25 gm mouse, once a day by oral gavage, or in some instances, twice per day. On day 18, mice are administered a final dose and two hours later a plasma sample is taken. At four hours following the final dose, mice are sacrificed, an additional plasma sample is collected and mouse spleens are removed and weighed. The average spleen weight of vehicle control group mice is compared to the average spleen weight of the test compound mice. Percent spleen growth inhibition is calculated as 100×[(spleen weight vehicle control-spleen weight test compound)/spleen weight vehicle control]. In some instances, the compounds were not tested in all of the assays as indicated by NA in the table below.

Row | SMILES | % spleen growth inhibition, Fms
1 | FC1(F)CCC(Nc2ncc(Cc3c[nH]c4ncc(Cl)cc34)cn2)CC1 [Compound P-3004] | 43%
2 | CCOc1ccc(Nc2ccc(C(=O)c3c[nH]c4ncc(C)cc34)c(F)n2)cn1 [Compound P-3045, [6-(6-ethoxy-pyridin-3-ylamino)-2-fluoro-pyridin-3-yl]-(5-methyl-1H-pyrrolo[2,3-b]pyridin-3-yl)-methanone] | 11%
3 | CCOc1ncnc2[nH]cc(Cc3ccc(Nc4cnn(CC)c4)nc3F)c12 [Compound P-4012, [5-(4-Ethoxy-7H-pyrrolo[2,3-d]pyrimidin-5-ylmethyl)-6-fluoro-pyridin-2-yl]-(1-ethyl-1H-pyrazol-4-yl)-amine] | 24%
4 | CCOc1ccc(Nc2ccc(Cc3c[nH]c4ncnc(C5CC5)c34)c(F)n2)cn1 [Compound P-4026, [5-(4-Cyclopropyl-7H-pyrrolo[2,3-d]pyrimidin-5-ylmethyl)-6-fluoro-pyridin-2-yl]-(6-ethoxy-pyridin-3-yl)-amine] | 41%
5 | CCOc1ccc(Nc2ccc(C(=O)c3c[nH]c4ncnc(C5CC5)c34)c(F)n2)cn1 [Compound P-4027, (4-Cyclopropyl-7H-pyrrolo[2,3-d]pyrimidin-5-yl)-[6-(6-ethoxy-pyridin-3-ylamino)-2-fluoro-pyridin-3-yl]-methanone] | −1.4%
6 | CCc1ccc(Nc2ccc(C(=O)c3c[nH]c4ncnc(C5CC5)c34)c(F)n2)cn1 [Compound P-4029, (4-Cyclopropyl-7H-pyrrolo[2,3-d]pyrimidin-5-yl)-[6-(6-ethyl-pyridin-3-ylamino)-2-fluoro-pyridin-3-yl]-methanone] | 66%
7 | Cc1ccc(Nc2ccc(C(=O)c3c[nH]c4ncnc(C5CC5)c34)c(F)n2)cn1 [Compound P-4031, (4-Cyclopropyl-7H-pyrrolo[2,3-d]pyrimidin-5-yl)-[2-fluoro-6-(6-methyl-pyridin-3-ylamino)-pyridin-3-yl]-methanone] | 29%
8 | Fc1nc(NC2CCC(F)(F)CC2)ccc1Cc1c[nH]c2ncnc(NCC(F)(F)F)c12 [Compound P-4128, 5-[[6-[(4,4-difluorocyclohexyl)amino]-2-fluoro-3-pyridyl]methyl]-N-(2,2,2-trifluoroethyl)-7H-pyrrolo[2,3-d]pyrimidin-4-amine] | 15%
9 | Fc1nc(Nc2ccc(C3CC3)nc2)ccc1Cc1c[nH]c2ncnc(NCC(F)(F)F)c12 [Compound P-4130, 5-[[6-[(6-cyclopropyl-3-pyridyl)amino]-2-fluoro-3-pyridyl]methyl]-N-(2,2,2-trifluoroethyl)-7H-pyrrolo[2,3-d]pyrimidin-4-amine] | 70%

molecular target: TrkC kinase (Homo sapiens, UniProt Q16288); experiment: TrkC kinase biochemical activity assay (similar to TrkA assay); conditions: read-out: Biochemical Inhibition IC50 TrkC
Sequence (Q16288 32-839): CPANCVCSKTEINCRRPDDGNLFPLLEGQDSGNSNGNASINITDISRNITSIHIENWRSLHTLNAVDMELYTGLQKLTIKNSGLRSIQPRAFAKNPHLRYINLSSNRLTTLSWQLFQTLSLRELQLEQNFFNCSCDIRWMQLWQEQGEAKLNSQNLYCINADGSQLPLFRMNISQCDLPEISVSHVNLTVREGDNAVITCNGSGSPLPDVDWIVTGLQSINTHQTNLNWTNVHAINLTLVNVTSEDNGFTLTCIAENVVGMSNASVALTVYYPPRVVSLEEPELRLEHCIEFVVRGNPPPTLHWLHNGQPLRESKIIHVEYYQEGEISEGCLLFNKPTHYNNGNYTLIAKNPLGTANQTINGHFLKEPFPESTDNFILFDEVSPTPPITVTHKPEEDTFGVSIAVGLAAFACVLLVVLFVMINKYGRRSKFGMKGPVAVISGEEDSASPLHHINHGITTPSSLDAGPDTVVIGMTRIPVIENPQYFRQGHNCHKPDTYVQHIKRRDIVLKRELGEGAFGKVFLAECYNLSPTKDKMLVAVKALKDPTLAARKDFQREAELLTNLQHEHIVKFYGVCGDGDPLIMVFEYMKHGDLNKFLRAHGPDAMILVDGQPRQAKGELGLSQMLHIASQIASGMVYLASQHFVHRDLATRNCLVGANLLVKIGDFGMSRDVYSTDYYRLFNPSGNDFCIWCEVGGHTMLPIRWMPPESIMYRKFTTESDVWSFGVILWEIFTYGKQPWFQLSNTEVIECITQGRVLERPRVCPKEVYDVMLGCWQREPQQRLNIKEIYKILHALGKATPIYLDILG
Experimental: In one assay the biochemical activity IC50 values are determined with respect to inhibition of TrkA kinase activity, where inhibition of phosphorylation of a peptide substrate is measured as a function of compound concentration. Compounds to be tested, dissolved in DMSO (1 μL), are added to a white 384-well plate (Costar #3705). Working stocks of TrkA kinase (UBI), biotin-(E4Y)10 substrate (Upstate Biotech, Cat#12-440), and ATP (Sigma, Cat#A-3377) are prepared in 25 mM Hepes pH 7.5, 10 mM MnCl2, 1 mM DTT, 0.01% BSA, and 0.01% Tween-20. All components are added to the 384-well plate for a final concentration of 1 ng/well TrkA, 30 nM biotin-(E4Y)10 and 100 μM ATP in a volume of 20 μL. Each sample is at 5% DMSO. The plate is shaken for 1 minute at 1200 rpm, spun for 1 minute at 1000 rpm, then incubated for 40 minutes at room temperature. Just before use, working stocks of donor and acceptor beads from the AlphaScreen PY20 Detection Kit (PerkinElmer, Cat#676601M) are prepared in 25 mM Hepes pH 7.5, 100 mM EDTA. 0.01% BSA. Donor Beads solution (Streptavidin beads) is added (5 μL) to each well to final bead concentration of 10 μg/mL. The plate is incubated at room temperature for 20 minutes. Acceptor Beads solution (PY20 coated beads) are then added to each well (5 μL) to a final concentration of bead at 10 μg/mL. The plates are incubated at room temperature for 60 minutes. Fluorescence signal is recorded on the Envision reader. Phosphorylated substrate results in binding of the PY20 antibody and association of the donor and acceptor beads such that signal correlates with kinase activity. The signal vs. compound concentration is used to determine the IC50. Similar assays are used for TrkB and Trk C kinase.

Row | IC50 | SMILES
10 | < 1000 nM | COc1ccc(Nc2ncc(Cc3c[nH]c4ncc(C)cc34)cn2)cn1 [Compound P-3020, (6-Methoxy-pyridin-3-yl)-[5-(5-methyl-1H-pyrrolo[2,3-b]pyridin-3-ylmethyl)-pyrimidin-2-yl]-amine]
11 | < 1000 nM | COc1ccc(Nc2ncc(Cc3c[nH]c4ncc(C)cc34)cn2)cc1 [Compound P-3021, (4-Methoxy-phenyl)-[5-(5-methyl-1H-pyrrolo[2,3-b]pyridin-3-ylmethyl)-pyrimidin-2-yl]-amine]
12 | < 1000 nM | COc1cc(Nc2ncc(Cc3c[nH]c4ncc(C)cc34)cn2)ccc1F [Compound P-3022, (4-Fluoro-3-methoxy-phenyl)-[5-(5-methyl-1H-pyrrolo[2,3-b]pyridin-3-ylmethyl)-pyrimidin-2-yl]-amine]
13 | > 1000 nM | CCCOc1ccc(Nc2ncc(Cc3c[nH]c4ncc(C)cc34)cn2)cc1 [Compound P-3024, [5-(5-Methyl-1H-pyrrolo[2,3-b]pyridin-3-ylmethyl)-pyrimidin-2-yl]-(4-propoxy-phenyl)-amine]
14 | < 10 nM | CCc1ccc(Nc2ncc(Cc3c[nH]c4ncc(C)cc34)cn2)cc1 [Compound P-3025, (4-Ethyl-phenyl)-[5-(5-methyl-1H-pyrrolo[2,3-b]pyridin-3-ylmethyl)-pyrimidin-2-yl]-amine]
15 | < 100 nM | CCOc1ccc(Nc2ncc(Cc3c[nH]c4ncc(C)cc34)cn2)cc1 [Compound P-3026, (4-Ethoxy-phenyl)-[5-(5-methyl-1H-pyrrolo[2,3-b]pyridin-3-ylmethyl)-pyrimidin-2-yl]-amine]
16 | < 100 nM | Cc1cnc2[nH]cc(Cc3cnc(Nc4cc(-c5ccc(F)cc5)n[nH]4)nc3)c2c1 [Compound P-3028, [5-(4-Fluoro-phenyl)-2H-pyrazol-3-yl]-[5-(5-methyl-1H-pyrrolo[2,3-b]pyridin-3-ylmethyl)-pyrimidin-2-yl]-amine]
17 | < 1000 nM | Cc1cnc2[nH]cc(Cc3cnc(Nc4cc(C(C)(C)C)n[nH]4)nc3)c2c1 [Compound P-3029, (5-tert-Butyl-2H-pyrazol-3-yl)-[5-(5-methyl-1H-pyrrolo[2,3-b]pyridin-3-ylmethyl)-pyrimidin-2-yl]-amine]
18 | < 10 nM | Cc1cnc2[nH]cc(Cc3cnc(Nc4ccc(C(C)(C)C)cc4)nc3)c2c1 [Compound P-3030, (4-tert-Butyl-phenyl)-[5-(5-methyl-1H-pyrrolo[2,3-b]pyridin-3-ylmethyl)-pyrimidin-2-yl]-amine amine]
19 | < 100 nM | Cc1cnc2[nH]cc(Cc3cnc(Nc4ccc(C(O)(C(F)(F)F)C(F)(F)F)cc4)nc3)c2c1 [Compound P-3031, 1,1,1,3,3,3-Hexafluoro-2-{4-[5-(5-methyl-1H-pyrrolo[2,3-b]pyridin-3-ylmethyl)-pyrimidin-2-ylamino]-phenyl}-propan-2-ol]
20 | > 1000 nM | Cc1cnc2[nH]cc(Cc3cnc(Nc4cc(C5CC5)n[nH]4)nc3)c2c1 [Compound P-3032, (5-Cyclopropyl-2H-pyrazol-3-yl)-[5-(5-methyl-1H-pyrrolo[2,3-b]pyridin-3-ylmethyl)-pyrimidin-2-yl]-amine]
21 | < 100 nM | CSc1ccc(Nc2ncc(Cc3c[nH]c4ncc(C)cc34)cn2)cc1 [Compound P-3033, [5-(5-Methyl-1H-pyrrolo[2,3-b]pyridin-3-ylmethyl)-pyrimidin-2-yl]-(4-methylsulfanyl-phenyl)-amine]
22 | < 1000 nM | Cc1cnc2[nH]cc(Cc3cnc(Nc4ccc(S(C)(=O)=O)cc4)nc3)c2c1 [Compound P-3034, (4-Methanesulfonyl-phenyl)-[5-(5-methyl-1H-pyrrolo[2,3-b]pyridin-3-ylmethyl)-pyrimidin-2-yl]-amine]
23 | < 1000 nM | CCn1ccc(Nc2ncc(Cc3c[nH]c4ncc(C)cc34)cn2)n1 [Compound P-3035, (1-Ethyl-1H-pyrazol-3-yl)-[5-(5-methyl-1H-pyrrolo[2,3-b]pyridin-3-ylmethyl)-pyrimidin-2-yl]-amine]
24 | < 1000 nM | CCn1cc(Nc2ncc(Cc3c[nH]c4ncc(C)cc34)cn2)cn1 [Compound P-3036, (1-Ethyl-1H-pyrazol-4-yl)-[5-(5-methyl-1H-pyrrolo[2,3-b]pyridin-3-ylmethyl)-pyrimidin-2-yl]-amine]
25 | < 10 nM | COc1ccc(Nc2ccc(Cc3c[nH]c4ncnc(OC)c34)c(F)n2)cn1 [Compound P-4001, [6-Fluoro-5-(4-methoxy-7H-pyrrolo[2,3-d]pyrimidin-5-ylmethyl)-pyridin-2-yl]-(6-methoxy-pyridin-3-yl)-amine]
26 | < 1000 nM | COc1ccc(Nc2ccc(Cc3c[nH]c4ncnc(C)c34)c(F)n2)cn1 [Compound P-4002, [6-Fluoro-5-(4-methyl-7H-pyrrolo[2,3-d]pyrimidin-5-ylmethyl)-pyridin-2-yl]-(6-methoxy-pyridin-3-yl)-amine]

— patent US8901118B2, “Compounds and methods for kinase modulation, and indications therefor” (Plexxikon Inc., priority 2010, dated 2014)
